Results: PubChem BioAssay AID292 (DTP/NCI, 2004)
Several values for one entry are separate records, joined by “and”; a condition that tells them apart may be missing. Identical values can stand only once. Toxic doses and inconclusive results are not listed.

Tested on: B6C3F1 mice, ip Sarcoma M5076, median survival T/C
Assay: NCI In Vivo Anticancer Drug Screen. Data for tumor model Sarcoma M5076 (intraperitoneal) in B6C3F1 mice
Details: endpoint: median survival time, higher = longer survival
How it was run: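 Survival measured in treated (T) and vehicle control (C) mice with transplantable tumour; result given as T divided by C.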

[1] = dose: 12.5 mg/kg/injection, schedule: Q04DX004 (ip), vehicle: Klucel (hydroxypropylcellulose) (HPC)
[2] = dose: 25.0 mg/kg/injection, schedule: Q04DX004 (ip), vehicle: Klucel (hydroxypropylcellulose) (HPC)
[3] = dose: 50.0 mg/kg/injection, schedule: Q04DX004 (ip), vehicle: Klucel (hydroxypropylcellulose) (HPC)
[4] = dose: 100.0 mg/kg/injection, schedule: Q04DX004 (ip), vehicle: Klucel (hydroxypropylcellulose) (HPC)
[5] = dose: 50.0 mg/kg/injection, schedule: Q04DX004 (ip), vehicle: saline with Tween-80
[6] = dose: 100.0 mg/kg/injection, schedule: Q04DX004 (ip), vehicle: saline with Tween-80
[7] = dose: 200.0 mg/kg/injection, schedule: Q04DX004 (ip), vehicle: saline with Tween-80
[8] = dose: 12.5 mg/kg/injection, schedule: Q04DX004 (ip), vehicle: saline with Tween-80
[9] = dose: 25.0 mg/kg/injection, schedule: Q04DX004 (ip), vehicle: saline with Tween-80

## O=C(O)c1cc(C(=O)O)c(C(=O)O)cc1C(=O)O.[NH2-].[NH2-].[NH2-].[NH2-].[Pt+2].[Pt+2]
dose: 0.12 mg/kg/injection, schedule: Q04DX004 (ip), vehicle: water
  T/C: 99 % of control
dose: 0.25 mg/kg/injection, schedule: Q04DX004 (ip), vehicle: water
  T/C: 112 % of control
dose: 0.5 mg/kg/injection, schedule: Q04DX004 (ip), vehicle: water
  T/C: 100 % of control
dose: 1.0 mg/kg/injection, schedule: Q04DX004 (ip), vehicle: water
  T/C: 97 % of control
dose: 2.0 mg/kg/injection, schedule: Q04DX004 (ip), vehicle: water
  T/C: 94 % of control
dose: 4.0 mg/kg/injection, schedule: Q04DX004 (ip), vehicle: water
  T/C: 103 % of control and 108 % of control
dose: 8.0 mg/kg/injection, schedule: Q04DX004 (ip), vehicle: water
  T/C: 113 % of control and 119 % of control
dose: 32.0 mg/kg/injection, schedule: Q04DX004 (ip), vehicle: water
  T/C: 150 % of control and 241 % of control
dose: 64.0 mg/kg/injection, schedule: Q04DX004 (ip), vehicle: water
  T/C: 250 % of control

## CN(C)N=Nc1ccccc1
[1]
  T/C: 113 % of control
[2]
  T/C: 159 % of control
[3]
  T/C: 187 % of control
[4]
  T/C: 156 % of control

## CCCCCCN1CCN(Cc2ccc(N(CC)CC)cc2)C(=O)C1=O
[2]
  T/C: 95 % of control
[3]
  T/C: 107 % of control

## Cn1c2c(c3nc(N)nc(N)c3c1=O)CCc1ccccc1-2
dose: 25.0 mg/kg/injection, schedule: Q04DX004 (ip), vehicle: distilled water + alcohol
  T/C: 100 % of control
dose: 50.0 mg/kg/injection, schedule: Q04DX004 (ip), vehicle: distilled water + alcohol
  T/C: 104 % of control
dose: 100.0 mg/kg/injection, schedule: Q04DX004 (ip), vehicle: distilled water + alcohol
  T/C: 100 % of control

## Cn1c(-c2ccc(Br)cc2)cc2[nH]c(=S)nc(N)c2c1=O
[5]
  T/C: 96 % of control
[6]
  T/C: 92 % of control
[7]
  T/C: 87 % of control

## Cc1ccc(C(=O)[O][Hg][CH2]C2COC([CH2][Hg][O]C(=O)c3ccc(C)cc3)CO2)cc1 (stereo not drawn)
dose: 6.25 mg/kg/injection, schedule: Q04DX004 (ip), vehicle: saline with Tween-80
  T/C: 99 % of control
[8]
  T/C: 88 % of control
[9]
  T/C: 88 % of control

## COc1nc(C(Cl)(Cl)Cl)c(Cl)c(OC)c1Cl
[3]
  T/C: 99 % of control
[4]
  T/C: 114 % of control
dose: 179.0 mg/kg/injection, schedule: Q04DX004 (ip), vehicle: Klucel (hydroxypropylcellulose) (HPC)
  T/C: 152 % of control
dose: 179.6 mg/kg/injection, schedule: Q04DX004 (ip), vehicle: Klucel (hydroxypropylcellulose) (HPC)
  T/C: 121 % of control
dose: 400.0 mg/kg/injection, schedule: Q04DX004 (ip), vehicle: Klucel (hydroxypropylcellulose) (HPC)
  T/C: 168 % of control

## O=S1(=O)CS(=O)(=O)OCCO1
dose: 6.25 mg/kg/injection, schedule: Q01DX009 (oral), vehicle: Klucel (hydroxypropylcellulose) (HPC)
  T/C: 160 % of control
dose: 6.25 mg/kg/injection, schedule: Q04DX004 (ip), vehicle: Klucel (hydroxypropylcellulose) (HPC)
  T/C: 165 % of control
dose: 12.5 mg/kg/injection, schedule: Q01DX001 (oral), vehicle: Klucel (hydroxypropylcellulose) (HPC)
  T/C: 109 % of control
dose: 12.5 mg/kg/injection, schedule: Q01DX009 (oral), vehicle: Klucel (hydroxypropylcellulose) (HPC)
  T/C: 192 % of control
[1]
  T/C: 180 % of control
dose: 25.0 mg/kg/injection, schedule: Q01DX009 (oral), vehicle: Klucel (hydroxypropylcellulose) (HPC)
  T/C: 300 % of control
[2]
  T/C: 267 % of control and 290 % of control
dose: 50.0 mg/kg/injection, schedule: Q01DX009 (oral), vehicle: Klucel (hydroxypropylcellulose) (HPC)
  T/C: 300 % of control
[3]
  T/C: 267 % of control and 300 % of control
dose: 100.0 mg/kg/injection, schedule: Q01DX001 (oral), vehicle: Klucel (hydroxypropylcellulose) (HPC)
  T/C: 300 % of control

## CN(C)CCN1C(=O)c2cccc3cc(N)cc(c23)C1=O
dose: 12.96 mg/kg/injection, schedule: Q04DX004 (ip), vehicle: acid diluted with saline
  T/C: 108 % of control and 117 % of control
dose: 21.6 mg/kg/injection, schedule: Q04DX004 (ip), vehicle: acid diluted with saline
  T/C: 159 % of control
dose: 36.0 mg/kg/injection, schedule: Q04DX004 (ip), vehicle: acid diluted with saline
  T/C: 158 % of control

## CN(C)[C@@H]1C(=O)C(C(=O)NCN2CCN(C(=N)N=C(N)N)CC2)=C(O)[C@@]2(O)C(=O)C3=C(O)c4c(O)cccc4[C@@](C)(O)[C@H]3C[C@@H]12
dose: 0.31 mg/kg/injection, schedule: Q04DX004 (ip), vehicle: saline
  T/C: 105 % of control
dose: 0.62 mg/kg/injection, schedule: Q04DX004 (ip), vehicle: saline
  T/C: 102 % of control
dose: 1.25 mg/kg/injection, schedule: Q04DX004 (ip), vehicle: saline
  T/C: 102 % of control
dose: 1.8 mg/kg/injection, schedule: Q04DX004 (ip), vehicle: suspension in saline
  T/C: 94 % of control
dose: 2.5 mg/kg/injection, schedule: Q04DX004 (ip), vehicle: saline
  T/C: 95 % of control
dose: 3.0 mg/kg/injection, schedule: Q04DX004 (ip), vehicle: suspension in saline
  T/C: 90 % of control
dose: 5.0 mg/kg/injection, schedule: Q04DX004 (ip), vehicle: saline
  T/C: 106 % of control
dose: 5.0 mg/kg/injection, schedule: Q04DX004 (ip), vehicle: suspension in saline
  T/C: 93 % of control
dose: 8.33 mg/kg/injection, schedule: Q04DX004 (ip), vehicle: suspension in saline
  T/C: 91 % of control
dose: 13.88 mg/kg/injection, schedule: Q04DX004 (ip), vehicle: suspension in saline
  T/C: 94 % of control

## CN1C(=O)C(=O)N(Cc2ccco2)C1=O
dose: 31.25 mg/kg/injection, schedule: Q04DX004 (ip), vehicle: Klucel (hydroxypropylcellulose) (HPC)
  T/C: 106 % of control
dose: 62.5 mg/kg/injection, schedule: Q04DX004 (ip), vehicle: Klucel (hydroxypropylcellulose) (HPC)
  T/C: 106 % of control
dose: 125.0 mg/kg/injection, schedule: Q04DX004 (ip), vehicle: Klucel (hydroxypropylcellulose) (HPC)
  T/C: 99 % of control
dose: 250.0 mg/kg/injection, schedule: Q04DX004 (ip), vehicle: Klucel (hydroxypropylcellulose) (HPC)
  T/C: 97 % of control
dose: 500.0 mg/kg/injection, schedule: Q04DX004 (ip), vehicle: Klucel (hydroxypropylcellulose) (HPC)
  T/C: 100 % of control

## CC(C)(C)c1ccc(C(=O)N2CCOC23CCCCC3)cc1
[5]
  T/C: 101 % of control and 103 % of control
[6]
  T/C: 93 % of control and 103 % of control
[7]
  T/C: 97 % of control and 98 % of control
dose: 400.0 mg/kg/injection, schedule: Q04DX004 (ip), vehicle: saline with Tween-80
  T/C: 91 % of control and 100 % of control
dose: 800.0 mg/kg/injection, schedule: Q04DX004 (ip), vehicle: saline with Tween-80
  T/C: 89 % of control and 93 % of control

## COC1C(CO)OC(n2c3c(Cl)cccc3c3c4c(c5c6cccc(Cl)c6[nH]c5c32)C(=O)NC4=O)C(O)C1O (stereo not drawn)
dose: 46.75 mg/kg/injection, schedule: Q04DX004 (ip), vehicle: distilled water + Tween-80
  T/C: 113 % of control
dose: 50.0 mg/kg/injection, schedule: Q04DX004 (ip), vehicle: distilled water + Tween-80
  T/C: 116 % of control
dose: 93.5 mg/kg/injection, schedule: Q04DX004 (ip), vehicle: distilled water + Tween-80
  T/C: 118 % of control
dose: 100.0 mg/kg/injection, schedule: Q04DX004 (ip), vehicle: distilled water + Tween-80
  T/C: 117 % of control and 118 % of control
dose: 200.0 mg/kg/injection, schedule: Q04DX004 (ip), vehicle: distilled water + Tween-80
  T/C: 118 % of control
dose: 374.0 mg/kg/injection, schedule: Q04DX004 (ip), vehicle: distilled water + Tween-80
  T/C: 108 % of control
dose: 748.0 mg/kg/injection, schedule: Q04DX004 (ip), vehicle: distilled water + Tween-80
  T/C: 115 % of control
dose: 800.0 mg/kg/injection, schedule: Q04DX004 (ip), vehicle: distilled water + Tween-80
  T/C: 117 % of control

## [NH-]C(CCC(N)=O)C(=O)O.[NH-]C(CCC(N)=O)C(=O)O.[Zn+2] (stereo not drawn)
[8]
  T/C: 103 % of control
[9]
  T/C: 98 % of control
[5]
  T/C: 96 % of control
